Data from patent publication US12630547B2, “RAS protein degraders, pharmaceutical compositions thereof, and their therapeutic applications” (BioTheryX, Inc., priority 2019, dated 2026).

Tests used:
Type in all cases: cell-based
H358 cells = assay: Cell viability assay (CELLTITER-GLO), H358 cells; conditions: Table 4; 3 days
Protocol: (§1) MOLM-13 cells, MV-4-11 cells, H23, and H358 cells were independently cultured in RPMI 1640 media supplemented with 10% fetal bovine serum, streptomycin and penicillin. The cells were plated in white walled 96-well plates at 4,000 cells/well. The cells were incubated in DMSO (control) or a compound for 3 days at 37° C. under 5% CO2. A CELLTITER-GLO® reagent (100 μL) was then added to each well. After a 10 min incubation with shaking, luminescence was measured using an ENVISION® multimode plate reader.
In Tables 1 and 2, each compound was tested at 10 μM; and in Table 3, each compound was tested at 1 μM. In Tables 1 to 3, the cell viability values as % DMSO are reported as “A,” “B,” “C,” or “D;” where “A” represents a % viability value of less than 10%; “B” represents a % viability value of no less than 10% and less than 25%; “C” represents a % viability value of no less than 25% and less than 50%; and “D” represents a % viability value of no less than 50%. Compound A is
(§2) IC50 values are summarized in Table 4, where “A” represents an IC50 value of no greater than 1 μM, “B” represents an IC50 value of greater than 1 μM and no greater than 5 μM, “C” represents an IC50 value of greater than 5 μM and no greater than 10 μM, and “D” represents an IC50 value of greater than 10 μM.

H23 cells = assay: Cell viability assay (CELLTITER-GLO), H23 cells; conditions: Table 4; 3 days
Protocol: as §1, §2

MOLM-13 cells = assay: Cell viability assay (CELLTITER-GLO), MOLM-13 cells; conditions: Homo sapiens, MOLM-13, 72 h; Table 2; compound at 10 μM, 3 days; read-out: Effect on MOLM-13 cell viability (% DMSO)
Protocol: as §1
In Tables 1 and 2, each compound was tested at 10 μM; and in Table 3, each compound was tested at 1 μM. In Tables 1 to 3, the cell viability values as % DMSO are reported as “A,” “B,” “C,” or “D;” where “A” represents a % viability value of less than 10%; “B” represents a % viability value of no less than 10% and less than 25%; “C” represents a % viability value of no less than 25% and less than 50%; and “D” represents a % viability value of no less than 50%. Compound A is […]

With `CCC(=O)N1CCN(c2ncnc3c(Cl)c(-c4c(F)cccc4OCCCCCCCCN4CCC(c5cc(F)cc6c5CN(C5CCC(=O)NC5=O)C6=O)CC4)c(F)cc23)CC1` (stereo not drawn) [Compound 20, 3-(4-(1-(8-(2-(8-Chloro-6-fluoro-4-(4-propionylpiperazin-1-yl)quinazolin-7-yl)-3-fluorophenoxy)octyl)piperidin-4-yl)-6-fluoro-1-oxoisoindolin-2-yl)piperidine-2,6-dione] the “Inhibition of H358 cells, IC50 (class)” value (H358 cells) was “B′”, the “Inhibition of H23 cells, IC50 (class)” value (H23 cells) was “B′” and the viability at 10 µM (MOLM-13 cells) was < 10%.
`C=CC(=O)N1CCN(c2ncnc3c(F)c(-c4c(F)cccc4OCCOCCOCCOCCNc4cccc5c4C(=O)N(C4CCC(=O)NC4=O)C5=O)c(Cl)cc23)CC1` (stereo not drawn) [Compound 23, 4-((2-(2-(2-(2-(2-(4-(4-Acryloylpiperazin-1-yl)-6-chloro-8-fluoroquinazolin-7-yl)-3-fluorophenoxy)ethoxy)ethoxy)ethoxy)ethyl)amino)-2-(2,6-dioxopiperidin-3-yl)isoindoline-1,3-dione] was tested, and the “Inhibition of H358 cells, IC50 (class)” value (H358 cells) was “B′”, the “Inhibition of H23 cells, IC50 (class)” value (H23 cells) was “B′” and the viability at 10 µM (MOLM-13 cells) was < 10%.
`CCC(=O)N1CCN(c2nc(OCCOCCOCCOCCNc3cccc4c3C(=O)N(C3CCC(=O)NC3=O)C4=O)nc3c2CCN(c2cccc4ccccc24)C3)C[C@H]1C` (stereo partly drawn) [Compound 48, 2-(2,6-Dioxopiperidin-3-yl)-4-((2-(2-(2-(2-((4-((R)-3-methyl-4-propionylpiperazin-1-yl)-7-(naphthalen-1-yl)-5,6,7,8-tetrahydropyrido[3,4-d]pyrimidin-2-yl)oxy)ethoxy)ethoxy)ethoxy)ethyl)-amino)isoindoline-1,3-dione] was tested, and the “Inhibition of H358 cells, IC50 (class)” value (H358 cells) was “D′” and the “Inhibition of H23 cells, IC50 (class)” value (H23 cells) was “D′”.
`CCC(=O)N1CCN(c2ncnc3c(Cl)c(-c4c(F)cccc4OCCCCCCCCN4CCC(c5cc(F)cc6c5CN(C5CCC(=O)NC5=O)C6=O)CC4)c(F)cc23)CC1` [Compound 49, 3-(4-(1-(8-((R)-2-(8-Chloro-6-fluoro-4-(4-propionylpiperazin-1-yl)quinazolin-7-yl)-3-fluorophenoxy)octyl)piperidin-4-yl)-6-fluoro-1-oxoisoindolin-2-yl)piperidine-2,6-dione] was tested, and the “Inhibition of H358 cells, IC50 (class)” value (H358 cells) was “B′” and the “Inhibition of H23 cells, IC50 (class)” value (H23 cells) was “B′”.
In the case of `C=CC(=O)N1CCN(c2ncnc3c(F)c(-c4c(F)cccc4OCCCCCCC(=O)N[C@H](C(=O)N4C[C@H](O)C[C@H]4C(=O)NCc4ccc(-c5scnc5C)cc4)C(C)(C)C)c(Cl)cc23)CC1` [Compound 50, (2S,4R)-1-((2S)-2-(7-(2-(4-(4-Acryloylpiperazin-1-yl)-6-chloro-8-fluoroquinazolin-7-yl)-3-fluorophenoxy)heptanamido)-3,3-dimethylbutanoyl)-4-hydroxy-N-(4-(4-methylthiazol-5-yl)benzyl)pyrrolidine-2-carboxamide], the “Inhibition of H358 cells, IC50 (class)” value (H358 cells) is reported as “A′” and the “Inhibition of H23 cells, IC50 (class)” value (H23 cells) is reported as “B′”.
In the case of `O=C1CCC(N2Cc3c(cc(F)cc3C3CCN(CCCCCCCOc4cccc(F)c4-c4c(Cl)cc5c(N6CCN(C(=O)C7CCCC7)CC6)ncnc5c4F)CC3)C2=O)C(=O)N1` (stereo not drawn) [Compound 51, 3-(4-(1-(7-(2-(6-Chloro-4-(4-(cyclopentanecarbonyl)piperazin-1-yl)-8-fluoroquinazolin-7-yl)-3-fluorophenoxy)heptyl)piperidin-4-yl)-6-fluoro-1-oxoisoindolin-2-yl)piperidine-2,6-dione], the “Inhibition of H358 cells, IC50 (class)” value (H358 cells) is reported as “B′” and the “Inhibition of H23 cells, IC50 (class)” value (H23 cells) is reported as “B′”.
In the case of `O=C1CCC(N2Cc3c(cc(F)cc3C3CCN(CCCCCCCOc4cccc(F)c4-c4c(Cl)cc5c(N6CCN(C(=O)C7CCOCC7)CC6)ncnc5c4F)CC3)C2=O)C(=O)N1` (stereo not drawn) [Compound 52, 3-(4-(1-(7-(2-(6-Chloro-8-fluoro-4-(4-(tetrahydro-2H-pyran-4-carbonyl)piperazin-1-yl)quinazolin-7-yl)-3-fluorophenoxy)heptyl)piperidin-4-yl)-6-fluoro-1-oxoisoindolin-2-yl)piperidine-2,6-dione], the “Inhibition of H358 cells, IC50 (class)” value (H358 cells) is reported as “C′” and the “Inhibition of H23 cells, IC50 (class)” value (H23 cells) is reported as “B′”.
For `O=C1CCC(N2Cc3c(cc(F)cc3C3CCN(CCCCCCCOc4cccc(F)c4-c4c(Cl)cc5c(N6CCN(C(=O)CC7CC7)CC6)ncnc5c4F)CC3)C2=O)C(=O)N1` (stereo not drawn) [Compound 53, 3-(4-(1-(7-(2-(6-Chloro-4-(4-(2-cyclopropylacetyl)piperazin-1-yl)-8-fluoroquinazolin-7-yl)-3-fluorophenoxy)heptyl)piperidin-4-yl)-6-fluoro-1-oxoisoindolin-2-yl)piperidine-2,6-dione], the “Inhibition of H358 cells, IC50 (class)” value (H358 cells) was “B′” and the “Inhibition of H23 cells, IC50 (class)” value (H23 cells) was “B′”.
`O=C1CCC(N2Cc3c(cc(F)cc3C3CCN(CCCCCCCOc4cccc(F)c4-c4c(Cl)cc5c(N6CCN(C(=O)C7CCOC7)CC6)ncnc5c4F)CC3)C2=O)C(=O)N1` (stereo not drawn) [Compound 54, 3-(4-(1-(7-(2-(6-Chloro-8-fluoro-4-(4-(tetrahydrofuran-3-carbonyl)piperazin-1-yl)quinazolin-7-yl)-3-fluorophenoxy)heptyl)piperidin-4-yl)-6-fluoro-1-oxoisoindolin-2-yl)piperidine-2,6-dione] was tested, and the “Inhibition of H358 cells, IC50 (class)” value (H358 cells) was “C′” and the “Inhibition of H23 cells, IC50 (class)” value (H23 cells) was “B′”.
In the case of `CCC(=O)N1CCN(c2ncnc3c(F)c(-c4c(F)cccc4OCCCCCN4CCC(c5cc(F)cc6c5CN(C5CCC(=O)NC5=O)C6=O)CC4)c(Cl)cc23)CC1` (stereo not drawn) [Compound 60, 3-(4-(1-(5-(2-(6-Chloro-8-fluoro-4-(4-propionylpiperazin-1-yl)quinazolin-7-yl)-3-fluorophenoxy)pentyl)piperidin-4-yl)-6-fluoro-1-oxoisoindolin-2-yl)piperidine-2,6-dione], the “Inhibition of H358 cells, IC50 (class)” value (H358 cells) is reported as “D′” and the “Inhibition of H23 cells, IC50 (class)” value (H23 cells) is reported as “C′”.
`CCC(=O)N1CCN(c2nc(NCCC(=O)N(C)C)nc3c(F)c(-c4c(F)cccc4OCCCCCCCN4CCC(c5cc(F)cc6c5CN(C5CCC(=O)NC5=O)C6=O)CC4)c(Cl)cc23)CC1` (stereo not drawn) [Compound 86, 3-((6-Chloro-7-(2-((7-(4-(2-(2,6-dioxopiperidin-3-yl)-6-fluoro-1-oxoisoindolin-4-yl)piperidin-1-yl)heptyl)oxy)-6-fluorophenyl)-8-fluoro-4-(4-propionylpiperazin-1-yl)quinazolin-2-yl)amino)-N,N-dimethylpropanamide] was tested, and the “Inhibition of H358 cells, IC50 (class)” value (H358 cells) was “B′” and the “Inhibition of H23 cells, IC50 (class)” value (H23 cells) was “B′”.
With `C=C(Cl)C(=O)N1CCN(c2ncnc3c(F)c(-c4c(F)cccc4OCCCCCCCN4CCCC(c5cc(F)cc6c5CN(C5CCC(=O)NC5=O)C6=O)C4)c(Cl)cc23)CC1` (stereo not drawn) [Compound 106, 3-(4-(1-(7-(2-(6-Chloro-4-(4-(2-chloroacryloyl)piperazin-1-yl)-8-fluoroquinazolin-7-yl)-3-fluorophenoxy)heptyl)piperidin-3-yl)-6-fluoro-1-oxoisoindolin-2-yl)piperidine-2,6-dione] the “Inhibition of H358 cells, IC50 (class)” value (H358 cells) was “A′” and the “Inhibition of H23 cells, IC50 (class)” value (H23 cells) was “A′”.
With `C=C(Cl)C(=O)N1CCN(c2ncnc3c(F)c(-c4c(F)cccc4OCCc4ccc(CCN5CCC(c6cc(F)cc7c6CN(C6CCC(=O)NC6=O)C7=O)CC5)cc4)c(Cl)cc23)C[C@H]1CC#N` (stereo partly drawn) [Compound 131, 2-((2R)-4-(6-Chloro-7-(2-(4-(2-(4-(2-(2,6-dioxopiperidin-3-yl)-6-fluoro-1-oxoisoindolin-4-yl)piperidin-1-yl)ethyl)phenethoxy)-6-fluorophenyl)-8-fluoroquinazolin-4-yl)-1-(2-chloroacryloyl)piperazin-2-yl)acetonitrile] the “Inhibition of H358 cells, IC50 (class)” value (H358 cells) was “A′” and the “Inhibition of H23 cells, IC50 (class)” value (H23 cells) was “A′”.
In the case of `C=C(Cl)C(=O)N1CCN(c2nc(OC[C@@H]3CCCN3C)nc3c(F)c(-c4c(F)cccc4OCCCCCCCN4CCC(c5cc6c(cc5F)C(=O)N(C5CCC(=O)NC5=O)C6)CC4)c(Cl)cc23)C[C@H]1CC#N` (stereo partly drawn) [Compound 132, 2-((2R)-4-(6-Chloro-7-(2-((7-(4-(2-(2,6-dioxopiperidin-3-yl)-6-fluoro-1-oxoisoindolin-5-yl)piperidin-1-yl)heptyl)oxy)-6-fluorophenyl)-8-fluoro-2-(((S)-1-methylpyrrolidin-2-yl)methoxy)quinazolin-4-yl)-1-(2-chloroacryloyl)piperazin-2-yl)acetonitrile], the “Inhibition of H358 cells, IC50 (class)” value (H358 cells) is reported as “B′” and the “Inhibition of H23 cells, IC50 (class)” value (H23 cells) is reported as “B′”.
